Measurements: patent US8618299B2, “Azinone-substituted azapolycycle MCH-1 antagonists, methods of making, and use thereof” (Albany Molecular Research, Inc., priority 2009, dated 2013)
pKi: −log10 of the molar value. Structures can show the parent of a compound that is named as a salt. Each block holds one compound with its values, some of them ahead of it.

What was measured:
[1] = biological target: human MCH-1 receptor (Homo sapiens (Human), UniProt Q99705); test: Binding assay for human melanin-concentrating hormone (MCH1) receptor; conditions: membranes from CHO-K1 cells expressing human MCH1 receptor, 1.4 nM [3H]-labeled radioligand, 60 min at 25° C., pH 7.4, Ki from Cheng Prusoff equation
Experimental: Binding Assay for Human Melanin-Concentrating Hormone (MCH1) Receptor
Evaluation of the affinity of compounds for the human MCH-1 receptor was accomplished using 4-(3,4,5-tritritiumbenzyloxy)-1-(1-(2-(pyrrolidin-1-yl)ethyl)-1H-indazol-5-yl)pyridin-2(1H)-one and membranes prepared from stable CHO-K1 cells expressing the human MCH1 receptor obtained from Euroscreen (Batch 1138). Cell membrane homogenates (8.92 μg protein) were incubated for 60 min at 25° C. with 1.4 nM of the [^3H]-labeled compound in the absence or presence of the test compound in 50 mM Tris-HCl buffer, pH 7.4. Nonspecific binding was determined in the presence of 50 μM 1-(5-(4-cyanophenyl)bicyclo[3.1.0]hexan-2-yl)-3-(4-fluoro-3-(trifluoromethyl)phenyl)-1-(3-(4-methylpiperazin-1-yl)propyl)urea. Following incubation, the samples were filtered rapidly under vacuum through Skatron 11731 filters, pre-soaked in 0.5% polyethylenimine, and washed with ice-cold 50 mM Tris-HCl buffer, pH 7.4, (wash setting 9,9,0) using a Skatron cell harvester. The filters were counted for radioactivity in a liquid scintillation counter (Tri-Carb 2100TR, Packard) using a scintillation cocktail (Ultima Gold MV, Perkin Elmer).
The results are expressed as a percent inhibition of the control radioligand specific binding. The IC50 value (concentration causing a half-maximal inhibition of control specific binding) and Hill coefficient (nH) were determined by non-linear regression analysis of the competition curve using Hill equation curve fitting. The inhibition constant (Ki) was calculated from the Cheng Prusoff equation: (Ki=IC50/(1+(L/KD)), where L=concentration of radioligand in the assay, and KD=affinity of the radioligand for the receptor.

human MCH-1 receptor, sequence (Q99705 whole entry): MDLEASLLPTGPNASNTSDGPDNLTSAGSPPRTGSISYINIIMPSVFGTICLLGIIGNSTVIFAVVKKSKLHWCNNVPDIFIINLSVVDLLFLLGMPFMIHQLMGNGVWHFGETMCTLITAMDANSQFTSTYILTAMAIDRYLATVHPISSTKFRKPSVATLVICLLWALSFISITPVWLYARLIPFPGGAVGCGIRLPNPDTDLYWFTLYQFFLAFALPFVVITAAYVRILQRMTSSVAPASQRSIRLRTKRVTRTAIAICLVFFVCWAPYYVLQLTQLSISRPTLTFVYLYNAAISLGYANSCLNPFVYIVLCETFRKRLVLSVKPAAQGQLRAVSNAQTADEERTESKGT

Compound: Cc1ccc(COc2ccn(-c3ccc4c5c(n(C)c4c3)CC3CCCCN3C5)c(=O)c2)cn1 (centres unmarked) (as salt: hydrochloride) [Example 33, 1-(5-Methyl-5,6,6a,7,8,9,10,12-octahydroindolo[2,3-b]quinolizin-3-yl)-4-((6-methylpyridin-3-yl)methoxy)pyridin-2(1H)-one Dihydrochloride]
melting point: 270 to 272 °C

Compound: Cc1ccc(-c2ccn(-c3ccc4c5c(n(C)c4c3)CC3CCCCN3C5)c(=O)c2)cn1 (centres unmarked) (as salt: hydrochloride) [Example 35, 1-(5-Methyl-5,6,6a,7,8,9,10,12-octahydroindolo[2,3-b]quinolizin-3-yl)-4-(6-methylpyridin-3-yl)pyridin-2(1H)-one Dihydrochloride]
melting point: 256 to 260 °C

Compound: Cn1c2c(c3ccc(-n4ccc(OCc5ccc(F)cn5)cc4=O)cc31)CCN1CCCC21 (centres unmarked) (as salt: hydrochloride) [Example 43, 4-((5-Fluoropyridin-2-yl)methoxy)-1-(11-methyl-2,3,5,6,11,11b-hexahydro-1H-indolizino[8,7-b]indol-9-yl)pyridin-2(1H)-one Dihydrochloride]
melting point: 290 to 293 °C

Compound: Cl.Cn1c2c(c3ccc(-n4ccc(OCc5ccccc5)cc4=O)cc31)CCN1CCCC21 (single isomer, unassigned; (-)) [Example 3, (−)4-(Benzyloxy)-1-(11-methyl-2,3,5,6,11,11b-hexahydro-1H-indolizino[8,7-b]indol-9-yl)pyridin-2(1H)-one Hydrochloride]
melting point: 224 to 228 °C | pKi ([1]; Hydrochloride): 7.76

Compound: Cl.Cn1c2c(c3ccc(-n4ccc(-c5ccc(C(F)(F)F)cn5)cc4=O)cc31)CCN1CCCCC21 (centres unmarked) [Example 6, 1-(12-Methyl-1,2,3,4,6,7,12,12b-octahydroindolo[2,3-a]quinolizin-10-yl)-4-(5-(trifluoromethyl)pyridin-2-yl)pyridin-2(1H)-one Hydrochloride]
melting point: 280 to 284 °C | pKi [1]: 6.32

Compound: Cl.Cn1c2c(c3ccc(-n4ccc(OCc5ccc(Cl)cn5)cc4=O)cc31)CCN1CCCCC21 (centres unmarked) [Example 8, 4-((5-Chloropyridin-2-yl)methoxy)-1-(12-methyl-1,2,3,4,6,7,12,12b-octahydroindolo[2,3-a]quinolizin-10-yl)pyridin-2(1H)-one Hydrochloride]
melting point: 204 to 208 °C | pKi [1]: 7.70

Compound: Cl.Cn1c2c(c3ccc(-n4ccc(-c5ccc(C(F)(F)F)nc5)cc4=O)cc31)C1CCCN1CC2 (centres unmarked) [Example 14, 1-(7-Methyl-2,3,5,6,7,11c-hexahydro-1H-indolizino[7,8-b]indol-9-yl)-4-(6-(trifluoromethyl)pyridin-3-yl)pyridin-2(1H)-one Hydrochloride]
melting point: 235 to 240 °C | pKi [1]: 6.82

Compound: Cl.Cn1c2c(c3ccc(-n4ccc(OCc5ccc(C(F)(F)F)nc5)cc4=O)cc31)C1CCCN1CC2 (centres unmarked) [Example 18, 1-(7-Methyl-2,3,5,6,7,11c-hexahydro-1H-indolizino[7,8-b]indol-9-yl)-4-((6-(trifluoromethyl)pyridin-3-yl)methoxy)pyridin-2(1H)-one Hydrochloride]
melting point: 250 to 254 °C | pKi [1]: 7.92

Compound: Cl.O=c1cc(-c2ccc(C(F)(F)F)cc2)ccn1-c1ccc2c3c([nH]c2c1)CCN1CCCC31 (centres unmarked) [Example 26, 1-(2,3,5,6,7,11c-Hexahydro-1H-indolizino[7,8-b]indol-9-yl)-4-(4-(trifluoromethyl)phenyl)pyridin-2(1H)-one Hydrochloride]
melting point: 280 to 290 °C | pKi [1]: 7.92

Compound: Cl.O=c1cc(OCc2ccccc2)ccn1-c1ccc2c3c([nH]c2c1)CC1CCCCN1C3 (centres unmarked) [Example 29, 4-(Benzyloxy)-1-(5,6,6a,7,8,9,10,12-octahydroindolo[2,3-b]quinolizin-3-yl)-pyridin-2(1H)-one Hydrochloride]
melting point: 270 to 273 °C | pKi [1]: 8.07

The next lines start with the values.

melting point: 235 to 238 °C
Compound: Cn1c2c(c3ccc(-n4ccc(OCc5ccc(F)cn5)cc4=O)cc31)CN1CCCCC1C2 (centres unmarked) (as salt: hydrochloride) [Example 37, 4-((5-Fluoropyridin-2-yl)methoxy)-1-(5-methyl-5,6,6a,7,8,9,10,12-octahydroindolo[2,3-b]quinolizin-3-yl)pyridin-2(1H)-one Dihydrochloride]

melting point: 227 to 230 °C | pKi ([1]; Hydrochloride): 7.91
Compound: Cl.Cn1c2c(c3ccc(-n4ccc(OCc5ccccc5)cc4=O)cc31)CCN1CCCC21 (single isomer, unassigned; (+)) [Example 4, (+)4-(Benzyloxy)-1-(11-methyl-2,3,5,6,11,11b-hexahydro-1H-indolizino[8,7-b]indol-9-yl)pyridin-2(1H)-one Hydrochloride]

melting point: 270 to 280 °C | pKi ([1]; Hydrochloride): 7.72
Compound: Cl.Cn1c2c(c3ccc(-n4ccc(OCc5ccc(F)cn5)cc4=O)cc31)CN1CCCCC1C2 (single isomer, unassigned; (-)) [Example 38, (−)-4-((5-Fluoropyridin-2-yl)methoxy)-1-(5-methyl-5,6,6a,7,8,9,10,12-octahydroindolo[2,3-b]quinolizin-3-yl)pyridin-2(1H)-one Hydrochloride]

melting point: 167 to 170 °C | pKi ([1]; Hydrochloride): 7.83
Compound: Cl.Cn1c2c(c3ccc(-n4ccc(OCc5ccccc5)cc4=O)cc31)CCN1CCCC21 (centres unmarked) [Example 2, 4-(Benzyloxy)-1-(11-methyl-2,3,5,6,11,11b-hexahydro-1H-indolizino[8,7-b]indol-9-yl)pyridin-2(1H)-one Hydrochloride]

melting point: 210 to 213 °C | pKi [1]: 7.51
Compound: Cl.Cn1c2c(c3ccc(-n4ccc(OCc5ccccc5)cc4=O)cc31)CCN1CCCCC21 (centres unmarked) [Example 5, 4-(Benzyloxy)-1-(12-methyl-1,2,3,4,6,7,12,12b-octahydroindolo[2,3-a]quinolizin-10-yl)pyridin-2(1H)-one Hydrochloride]

melting point: 200 °C (dec.) | pKi [1]: 7.35
Compound: Cl.Cn1c2c(c3ccc(-n4ccc(OCc5ccc(F)cn5)cc4=O)cc31)CCN1CCCCC21 (centres unmarked) [Example 7, 4-((5-Fluoropyridin-2-yl)methoxy)-1-(12-methyl-1,2,3,4,6,7,12,12b-octahydroindolo[2,3-a]quinolizin-10-yl)pyridin-2(1H)-one Hydrochloride]

melting point: 210 to 213 °C | pKi [1]: 5.76
Compound: Cl.Cn1c2c(c3ccc(-n4ccc(-c5ccc(Cl)cn5)cc4=O)cc31)CCN1CCCCC21 (centres unmarked) [Example 9, 4-(5-Chloropyridin-2-yl)-1-(12-methyl-1,2,3,4,6,7,12,12b-octahydroindolo[2,3-a]quinolizin-10-yl)pyridin-2(1H)-one Hydrochloride]

melting point: 255 to 258 °C | pKi [1]: 8.09
Compound: Cl.Cn1c2c(c3ccc(-n4ccc(OCc5ccccc5)cc4=O)cc31)CN1CCCC1C2 (centres unmarked) [Example 11, 4-(Benzyloxy)-1-(10-methyl-2,3,5,10,11,11a-hexahydro-1H-indolizino[7,6-b]indol-8-yl)pyridin-2(1H)-one Hydrochloride]

melting point: 270 to 273 °C | pKi [1]: 8.15
Compound: Cl.O=c1cc(OCc2ccccc2)ccn1-c1ccc2c3c([nH]c2c1)CC1CCCN1C3 (centres unmarked) [Example 16, 4-(Benzyloxy)-1-(2,3,5,10,11,11a-hexahydro-1H-indolizino[7,6-b]indol-8-yl)pyridin-2(1H)-one Hydrochloride]

melting point: 260 to 264 °C | pKi [1]: 7.92
Compound: Cl.Cn1c2c(c3ccc(-n4ccc(OCc5ccccc5)cc4=O)cc31)C1CCCN1CC2 (centres unmarked) [Example 17, 4-(Benzyloxy)-1-(7-methyl-2,3,5,6,7,11c-hexahydro-1H-indolizino[7,8-b]indol-9-yl)pyridin-2(1H)-one Hydrochloride]

melting point: 250 to 253 °C | pKi [1]: 7.68
Compound: Cl.Cn1c2c(c3ccc(-n4ccc(OCc5ccccc5)cc4=O)cc31)C1CCCCN1CC2 (centres unmarked) [Example 22, 4-(Benzyloxy)-1-(8-methyl-1,2,3,4,6,7,8,12c-octahydroindolo[3,2-a]quinolizin-10-yl)pyridin-2(1H)-one Hydrochloride]

melting point: 205 to 215 °C | pKi [1]: 7.47
Compound: Cl.O=c1cc(-c2ccc(C(F)(F)F)nc2)ccn1-c1ccc2c3c([nH]c2c1)CCN1CCCC31 (centres unmarked) [Example 27, 1-(2,3,5,6,7,11c-Hexahydro-1H-indolizino[7,8-b]indol-9-yl)-4-(6-(trifluoromethyl)pyridin-3-yl)pyridin-2(1H)-one Hydrochloride]

melting point: 210 to 220 °C | pKi [1]: 7.92
Compound: Cl.O=c1cc(OCc2ccc(F)cc2F)ccn1-c1ccc2c3c([nH]c2c1)CCN1CCCC31 (centres unmarked) [Example 28, 4-(2,4-difluorobenzyloxy)-1-(2,3,5,6,7,11c-hexahydro-1H-indolizino[7,8-b]indol-9-yl)pyridin-2(1H)-one Hydrochloride]

melting point: 290 to 293 °C | pKi [1]: 8.08
Compound: Cl.Cn1c2c(c3ccc(-n4ccc(-c5ccc(C(F)(F)F)nc5)cc4=O)cc31)CN1CCCC1C2 (centres unmarked) [Example 30, 1-(10-Methyl-2,3,5,10,11,11a-hexahydro-1H-indolizino[7,6-b]indol-8-yl)-4-(6-(trifluoromethyl)pyridin-3-yl)pyridin-2(1H)-one Hydrochloride]
